This is an account of results in article PMC4632735, “Ferulic Acid Exerts Anti-Angiogenic and Anti-Tumor Activity by Targeting Fibroblast Growth Factor Receptor 1-Mediated Angiogenesis” (International Journal of Molecular Sciences, 2015).

One test has as its target T1, FGFR1 (Homo sapiens, UniProt P11362).
T1 construct: kinase domain
The experiment in a line: FRET-based in vitro kinase assay (Z'-LYTE); radiometric kinase panel gave […] inhibition at […]. Type of test: biochemical.

For the next test, the target named is FGFR2 (Homo sapiens, UniProt P21802). In words: in vitro kinase assay; radiometric kinase panel gave […] inhibition at […]. The test is classed as biochemical.
Chain of FGFR2 (P21802 22-821): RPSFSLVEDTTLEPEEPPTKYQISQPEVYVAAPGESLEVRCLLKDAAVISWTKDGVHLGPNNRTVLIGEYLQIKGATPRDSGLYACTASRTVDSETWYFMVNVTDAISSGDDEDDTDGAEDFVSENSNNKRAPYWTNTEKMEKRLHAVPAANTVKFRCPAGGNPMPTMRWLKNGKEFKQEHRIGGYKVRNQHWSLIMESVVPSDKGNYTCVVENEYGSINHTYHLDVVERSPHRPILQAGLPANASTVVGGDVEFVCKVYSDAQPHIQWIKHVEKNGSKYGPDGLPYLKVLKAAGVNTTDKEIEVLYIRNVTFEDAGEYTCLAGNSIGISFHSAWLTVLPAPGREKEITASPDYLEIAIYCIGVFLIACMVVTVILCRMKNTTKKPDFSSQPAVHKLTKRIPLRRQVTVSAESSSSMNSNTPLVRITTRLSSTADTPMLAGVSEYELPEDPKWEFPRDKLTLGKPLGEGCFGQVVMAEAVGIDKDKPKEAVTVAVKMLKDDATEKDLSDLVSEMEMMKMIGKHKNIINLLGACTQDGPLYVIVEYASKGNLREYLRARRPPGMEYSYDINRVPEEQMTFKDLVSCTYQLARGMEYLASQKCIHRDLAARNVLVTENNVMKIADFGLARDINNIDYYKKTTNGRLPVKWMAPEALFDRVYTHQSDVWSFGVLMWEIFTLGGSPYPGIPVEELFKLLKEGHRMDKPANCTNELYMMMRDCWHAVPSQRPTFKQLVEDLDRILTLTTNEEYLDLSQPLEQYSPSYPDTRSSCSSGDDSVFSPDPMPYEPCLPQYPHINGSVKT

T1 sequence (P11362 478-767 limits assumed): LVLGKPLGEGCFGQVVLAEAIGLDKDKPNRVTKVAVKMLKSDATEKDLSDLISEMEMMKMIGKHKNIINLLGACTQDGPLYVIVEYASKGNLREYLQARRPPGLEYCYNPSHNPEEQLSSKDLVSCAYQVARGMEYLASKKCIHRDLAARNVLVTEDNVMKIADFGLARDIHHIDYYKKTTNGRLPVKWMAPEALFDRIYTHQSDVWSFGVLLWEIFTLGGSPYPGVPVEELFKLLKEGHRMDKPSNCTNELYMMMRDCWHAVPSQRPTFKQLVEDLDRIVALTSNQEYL

Broadly, the IC50 is the concentration needed to halve the response being measured. Read a high IC50 as weaker potency. `COc1cc(/C=C/C(=O)O)ccc1O` [FA, 4-hydroxy-3-methoxycinnamic acid]: the IC50 is roughly 3.78 µM on FGFR1 and roughly 12.5 µM on FGFR2.
